Measured values: patent publication US9890166B2, “Imidazopyrrolidine derivatives and their use in the treatment of disease” (NOVARTIS AG, priority 2013, dated 2018)

What was measured:
[1] = target: nuclear BRD4-NUT foci in HCC2494 NUT midline carcinoma cells (Homo sapiens, UniProt O60885); test: cell-based
[2] = target: BRD4 (His-Brd4(44-477)) (Homo sapiens (Human), UniProt O60885); test: TR-FRET in-vitro binding assay for BRD4; conditions: single determination or n ≧ 2 independent determinations, read-out: Biochemical IC50 BRD4
In short: (§1)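 His-tagged BRD2, BRD3 and BRD4 fragments tested by TR-FRET at 8 compound concentrations, with DMSO stocks at 10 mM. Read on EnVision after 35 min incubation at 30° C.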

[3] = system: THP-1 cells; test: Cell growth inhibition assay (CellTiter-Glo), THP-1; conditions: for GI50: Homo sapiens, THP-1, read-out: THP-1 GI50; for THP-1 TGI: THP-1 cells, total growth inhibition, CellTiter-Glo;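 for all read-outs here: viability read as cellular ATP luminescence after 4 days, 3-fold dilution series from 10 µM, DMSO vehicle-treated cells taken as 100%, cell-free medium wells as −100%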
[4] = system: MV-4-11 cells; test: Cell growth inhibition assay (CellTiter-Glo), MV-4-11; conditions: for GI50: Homo sapiens, MV4-11, read-out: MV-4-11 GI50; for MV-4-11 TGI: MV-4-11 cells, total growth inhibition, CellTiter-Glo;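 for all read-outs here: cellular ATP luminescence after 4 days, 3-fold dilution series from 10 µM top dose, vehicle (0.1% DMSO) set to 100%, cell-free medium set to −100%, day 0 corrected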
[5] = system: K-562 cells; test: Cell growth inhibition assay (CellTiter-Glo), K-562; conditions: for GI50: Homo sapiens, K562, read-out: K-562 GI50; for K-562 TGI: K-562 cells, total growth inhibition, CellTiter-Glo;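 for all read-outs here: cellular ATP measured by luminescence after 4 days of exposure, 3-fold dilution series from 10 µM, DMSO vehicle-treated cells define 100%, cell-free medium wells −100%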
[6] = target: CREBBP bromodomain (His-CREBBP(1081-1197)) (Homo sapiens (Human), UniProt Q92793); test: AlphaScreen in-vitro binding assay for CREBBP; conditions: single determination or n ≧ 2 independent determinations, read-out: Biochemical IC50 CREBBP
In short: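 Detection used nickel-chelate acceptor plus streptavidin donor AlphaScreen beads, 1 h room temperature. Percent inhibition fitted by non-linear regression to IC50.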

[7] = target: BRD2 (His-Brd2(60-472)) (Homo sapiens (Human), UniProt P25440); test: TR-FRET in-vitro binding assay for BRD2; conditions: single determination or n ≧ 2 independent determinations, read-out: Biochemical IC50 BRD2
In short: as §1

[8] = target: BRD3 (His-Brd3(20-477)) (Homo sapiens (Human), UniProt Q15059); test: TR-FRET in-vitro binding assay for BRD3; conditions: single determination or n ≧ 2 independent determinations, read-out: Biochemical IC50 BRD3
In short: as §1

BRD3 (His-Brd3(20-477)), sequence (Q15059 20-477): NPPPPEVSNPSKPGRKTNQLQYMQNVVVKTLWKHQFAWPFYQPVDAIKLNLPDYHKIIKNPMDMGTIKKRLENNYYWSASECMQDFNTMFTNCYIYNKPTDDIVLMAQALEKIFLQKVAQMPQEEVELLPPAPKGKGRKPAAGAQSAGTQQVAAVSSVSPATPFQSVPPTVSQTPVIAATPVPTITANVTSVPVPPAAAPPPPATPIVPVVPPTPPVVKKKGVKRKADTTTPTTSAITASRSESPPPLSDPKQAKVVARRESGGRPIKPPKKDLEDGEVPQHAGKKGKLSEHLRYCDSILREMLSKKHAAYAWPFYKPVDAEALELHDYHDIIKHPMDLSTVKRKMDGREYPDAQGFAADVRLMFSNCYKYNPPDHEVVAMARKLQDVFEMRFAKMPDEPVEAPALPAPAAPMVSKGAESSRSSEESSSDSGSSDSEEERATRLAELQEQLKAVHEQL
CREBBP bromodomain (His-CREBBP(1081-1197)), sequence (Q92793 1081-1197): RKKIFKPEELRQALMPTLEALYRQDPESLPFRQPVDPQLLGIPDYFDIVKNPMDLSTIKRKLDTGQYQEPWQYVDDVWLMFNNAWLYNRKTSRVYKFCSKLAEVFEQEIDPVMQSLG
BRD2 (His-Brd2(60-472)), sequence (P25440 60-472): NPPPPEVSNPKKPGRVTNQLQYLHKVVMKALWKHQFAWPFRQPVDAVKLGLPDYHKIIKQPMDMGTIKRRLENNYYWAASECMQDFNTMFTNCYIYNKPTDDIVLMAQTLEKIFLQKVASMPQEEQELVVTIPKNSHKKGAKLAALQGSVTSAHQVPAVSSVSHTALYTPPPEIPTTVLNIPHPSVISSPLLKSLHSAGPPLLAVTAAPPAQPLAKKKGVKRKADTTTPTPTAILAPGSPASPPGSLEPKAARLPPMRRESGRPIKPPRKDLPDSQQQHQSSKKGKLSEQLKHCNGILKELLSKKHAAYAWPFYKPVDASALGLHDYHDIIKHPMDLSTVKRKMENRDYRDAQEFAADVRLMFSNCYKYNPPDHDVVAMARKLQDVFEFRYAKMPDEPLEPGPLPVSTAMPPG

Structure (SMILES)	IC50 [1]	IC50 [2]	GI50 [3]	THP-1 TGI [3]	GI50 [4]	MV-4-11 TGI [4]	GI50 [5]	K-562 TGI [5]	IC50 [6]	IC50 [7]	IC50 [8]
CC(C)n1c(-c2cnoc2)nc2c1C(c1ccc(Cl)cc1)N(c1ccc(=O)n(C)c1)C2=O (stereo not drawn) [Example 19, 6-(4-chlorophenyl)-1-isopropyl-2-(isoxazol-4-yl)-5-(1-methyl-6-oxo-1,6-dihydropyridin-3-yl)-5,6-dihydropyrrolo[3,4-d]imidazol-4(1H)-one]	> 10000 nM	220 nM									
COc1ccc(-c2nc3c([nH]2)C(c2ccc(Cl)cc2)N(c2cc(OC)c4nnc(C)n4c2)C3=O)cn1 (stereo not drawn) [Example 125, 6-(4-chlorophenyl)-5-(8-methoxy-3-methyl-[1,2,4]triazolo[4,3-a]pyridin-6-yl)-2-(6-methoxypyridin-3-yl)-5,6-dihydropyrrolo[3,4-d]imidazol-4(1H)-one]	1950 nM		2140 nM	3920 nM	809 nM	1120 nM	5290 nM	>10000 nM	34900 nM		
COc1ccc(-c2nc3c(n2C(C)C)C(c2ccc(Cl)cc2)N(c2cc(C)c4nnc(C(F)F)n4n2)C3=O)cn1 (stereo not drawn) [Example 149, 6-(4-chlorophenyl)-5-(3-(difluoromethyl)-8-methyl-[1,2,4]triazolo[4,3-b]pyridazin-6-yl)-1-isopropyl-2-(6-methoxypyridin-3-yl)-5,6-dihydropyrrolo[3,4-d]imidazol-4(1H)-one]		16 nM	33.3 nM	83.9 nM	26.5 nM	43.5 nM	148 nM	>10000 nM	> 37000 nM	22 nM	21 nM
Cc1cc(N2C(=O)c3nc(C)n(C(C)C)c3C2c2ccc(Cl)cc2)nn2c(C(F)F)nnc12 (stereo not drawn) [Example 150, 6-(4-chlorophenyl)-5-(3-(difluoromethyl)-8-methyl-[1,2,4]triazolo[4,3-b]pyridazin-6-yl)-1-isopropyl-2-methyl-5,6-dihydropyrrolo[3,4-d]imidazol-4(1H)-one]		38 nM	17.3 nM	46.4 nM	9.63 nM	24.2 nM	75.3 nM	>10000 nM	> 37000 nM	94 nM	39 nM
COc1ncccc1-c1nc2c(n1C(C)C)[C@@H](c1ccc(Cl)cc1)N(c1cc(C)c3nnc(C(F)F)n3c1)C2=O [Example 151, (R)-6-(4-chlorophenyl)-5-(3-(difluoromethyl)-8-methyl-[1,2,4]triazolo[4,3-a]pyridin-6-yl)-1-isopropyl-2-(2-methoxypyridin-3-yl)-5,6-dihydropyrrolo[3,4-d]imidazol-4(1H)-one]		11 nM	6.85 nM	17.45 nM	3.73 nM	8.015 nM	24.1 nM	>10000 nM	13900 nM	14 nM	14 nM
COc1ncccc1-c1nc2c([nH]1)[C@@H](c1ccc(Cl)cc1)N(c1cc(C)c3nnc(C(F)F)n3c1)C2=O [Example 153, (R)-6-(4-chlorophenyl)-5-(3-(difluoromethyl)-8-methyl-[1,2,4]triazolo[4,3-a]pyridin-6-yl)-2-(2-methoxypyridin-3-yl)-5,6-dihydropyrrolo[3,4-d]imidazol-4(1H)-one]		13 nM	18.4 nM	44.3 nM	25.6 nM	38.6 nM	95 nM	>10000 nM	28900 nM	25 nM	23 nM
COc1ccc(-c2nc3c(n2C(C)C)[C@@H](c2ccc(Cl)cc2)N(c2cc(C)c4nnn(C)c4n2)C3=O)cn1 [Example 154, (R)-6-(4-chlorophenyl)-5-(3,7-dimethyl-3H-[1,2,3]triazolo[4,5-b]pyridin-5-yl)-1-isopropyl-2-(6-methoxypyridin-3-yl)-5,6-dihydropyrrolo[3,4-d]imidazol-4(1H)-one]		19 nM	4.68 nM	12.2 nM	3.64 nM	8.305 nM	21.4 nM	>10000 nM	> 37000 nM	42 nM	19 nM
